One molecule from publication PMC12048447, “PANTAX: a phase Ib clinical trial of the efflux pump inhibitor SCO-101 in combination with gemcitabine and nab-paclitaxel in non-resectable or metastatic pancreatic cancer” (Investigational New Drugs, 2025) can be followed below.

Data set [1] deals with T1, ABCB1 (MDR1) human ABC transporter (Homo sapiens, UniProt P08183).
T1 construct: purchased SOLVO Biotechnology
The data set is described as follows: ABCB1 (MDR1) vesicular uptake inhibition in inside-out membrane vesicles. Particulars: vesicular uptake of probe substrate, SCO-101 1.2-300 µM, with and without ATP; read-out: IC50, inhibition of MDR1/ABCB1 efflux transporter. Format: biochemical. As for the experimental part:
Analysis of SCO-101 ABCB1 (MDR1) efflux transporter inhibition was evaluated by measuring the vesicular uptake of a probe substrate into inside-out membrane vesicles expressing ABCB1 (MDR1) human ABC transporter in the absence and presence of SCO-101 (1.2 –300 μM) with and without ATP. Transporter inhibition was observed as reduced level of vesicular uptake of the probe substrate in the presence of ATP. ABCB1 (MDR1) assay was conducted with reagents from PredivezTM VT Reagent Kit for MDR1/P-gp (SOLVO Biotechnology). Assays were conducted as per the manufacturer’s recommendation. The inhibition was evaluated by measuring the vesicular uptake of a probe substrate into inside-out membrane vesicles. Assays were conducted with or without ATP and in the absence and presence of SCO-101 at the indicated concentrations (1.2 –300μM).

Another data set deals with PANC-1-Pac cells. Description: MTT cell viability and ZIP synergy in paclitaxel-resistant PANC-1-Pac cells. The conditions noted are these: 72 h with drug + 72 h fresh media. In kind it is cell-based, human. From the text:
A paclitaxel-sensitive human PDAC cell line, PANC-1, was obtained (ATCC, CRL-1469) and the derived paclitaxel-resistant PANC-1-Pac cell line was established by gradually increasing concentrations of paclitaxel over a period of 2–4 months. Standard MTT and crystal violet assays were applied to evaluate the effect of treatment with either combinations of SCO-101 and paclitaxel or SRPK1-inhibitor and paclitaxel. Details are presented in the Online Resource.
Statistical analyses were mainly descriptive and included mean, median, range, and 95% CIs. Kaplan–Meier plots were constructed using Stata version 18 (StataCorp, 2023). In the preclinical study, the zero interaction potency (ZIP) synergy score was calculated as described by Yadav et al., to quantify the deviation from the expectation of zero interaction between drugs. A ZIP synergy score above 10 indicates synergy.
A paclitaxel-sensitive human PDAC cell line PANC-1 was obtained (ATCC, CRL-1469) and the derived paclitaxel-resistant PANC-1-Pac cell line was established by gradually increasing concentrations of paclitaxel over a period of 2-4 months. Standard MTT and crystal violet assays were applied to evaluate the effect of treatment with either combinations of SCO-101/paclitaxel or SRPK1 inhibitor/paclitaxel.
The selection began at 1 nM, increased to 2 nM and 4 nM, and ended at 8 nM. For each drug concentration the cells were kept for three passages. To evaluate the effect of the treatment either a Crystal Violet assay or MTT (3-(4,5-dimethylthiazol-2-yl)-2,5-diphenyltetrazolium bromide) assay were applied.
The MTT was conducted according to standard conditions. In short, cells were seeded at a density of 7,000 cells/well into a 96-well. One day after seeding, the cells were experimentally treated. Control conditions consisted of either growth medium (‘untreated’) or DMSO diluted in growth medium. All treatments were performed in triplicates. The cells were then kept in the CO2 incubator at 37 °C for 72 hours and plates were incubated with 100μl 1:10 MTT (0.5 mg/ml dissolved in phosphate buffered saline) for 3 hours and hereafter stopped using 100μl/well stop buffer (50g Sodium Dodecyl Sulphate, 245 mL MiliQ H2O, 5mL 1.0 N HCl was added to dissolve the formazan crystals overnight. Optical densities were measured at 570 and 670 nm.
Experiments with 4 different concentrations of either SCO-101 or paclitaxel and their combinations were applied to test for synergy among these two compounds in both the PANC-1 parental and -Paclitaxel resistant cells. SCO-101 was applied in 10, 20, 40 and 50 µM whereas paclitaxel was tested in 5, 10, 15 and 20 nM for a total of 144 h, where drug was only present in the first 72h (sFig 2). The SRPK1 inhibitor SPHINX31 was tested at 0.1; 0.5; 1 and 5 µM. The SRPK1 inhibitor SRPIN was tested at 1; 5; 10 and 50 µM. Both inhibitors were tested in combination with 5, 10, 15 and 20 nM Paclitaxel.
PANC-1-Pac cells treated with paclitaxel and SRPIN340 with four different concentrations of each for a total of 144 hours. Cell viability was evaluated by MTT assays and reported as percentage of untreated control (medium). Error bars indicate percentage standard deviation.

T1 sequence (P08183 whole entry): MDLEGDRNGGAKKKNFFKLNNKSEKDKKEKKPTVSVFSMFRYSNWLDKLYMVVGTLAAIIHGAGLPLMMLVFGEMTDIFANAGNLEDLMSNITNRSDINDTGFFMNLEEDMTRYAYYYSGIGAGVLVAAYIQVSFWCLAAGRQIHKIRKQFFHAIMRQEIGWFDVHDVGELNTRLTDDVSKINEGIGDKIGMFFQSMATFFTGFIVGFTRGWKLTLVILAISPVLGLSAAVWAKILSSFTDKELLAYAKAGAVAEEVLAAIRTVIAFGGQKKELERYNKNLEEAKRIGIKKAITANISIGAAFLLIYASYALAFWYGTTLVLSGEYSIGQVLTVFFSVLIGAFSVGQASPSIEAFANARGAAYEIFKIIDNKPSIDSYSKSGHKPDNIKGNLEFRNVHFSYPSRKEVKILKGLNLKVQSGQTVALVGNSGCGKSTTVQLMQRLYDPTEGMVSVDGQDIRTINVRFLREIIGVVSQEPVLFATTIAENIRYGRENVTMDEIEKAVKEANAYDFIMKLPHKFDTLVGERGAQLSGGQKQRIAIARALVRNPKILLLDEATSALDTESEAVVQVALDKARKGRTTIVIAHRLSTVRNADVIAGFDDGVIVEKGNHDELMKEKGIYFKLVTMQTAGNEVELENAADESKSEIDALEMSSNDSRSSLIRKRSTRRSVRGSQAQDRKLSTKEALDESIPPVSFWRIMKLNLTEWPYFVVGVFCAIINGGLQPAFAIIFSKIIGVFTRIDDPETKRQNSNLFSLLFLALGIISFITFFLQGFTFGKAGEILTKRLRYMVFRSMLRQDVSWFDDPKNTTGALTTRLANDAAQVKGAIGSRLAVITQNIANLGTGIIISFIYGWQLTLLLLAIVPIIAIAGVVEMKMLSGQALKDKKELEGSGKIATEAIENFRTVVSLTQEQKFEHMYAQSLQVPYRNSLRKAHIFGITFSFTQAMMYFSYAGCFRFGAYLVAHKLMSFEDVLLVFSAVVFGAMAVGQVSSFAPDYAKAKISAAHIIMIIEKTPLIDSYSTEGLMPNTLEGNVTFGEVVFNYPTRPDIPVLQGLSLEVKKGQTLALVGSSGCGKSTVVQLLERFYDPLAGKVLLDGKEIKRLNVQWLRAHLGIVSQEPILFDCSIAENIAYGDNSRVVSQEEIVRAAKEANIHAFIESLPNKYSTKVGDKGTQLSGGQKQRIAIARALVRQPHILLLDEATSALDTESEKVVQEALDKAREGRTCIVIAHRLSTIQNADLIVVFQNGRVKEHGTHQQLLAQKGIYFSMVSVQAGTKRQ

For `O=C(Nc1cc(C(F)(F)F)cc(C(F)(F)F)c1)Nc1ccc(Br)cc1-c1nnn[nH]1` [SCO-101], the IC50 in data set [1] was 16.1 µM. In addition, the “effect on PANC-1-Pac cells (cell viability), drug alone” value in the data set on PANC-1-Pac cells is recorded as “dose-dependent effect”. In addition, the “ZIP synergy score with paclitaxel” value in the data set with PANC-1-Pac cells (PANC-1-Pac cells, SCO-101 + paclitaxel, score above 10 indicates synergy) is 16.795.
